Patent publication EP0319906A2, “Novel quinoline derivatives, processes for preparation thereof and antibacterial agent containing them” (Dainippon Pharmaceutical Co., Ltd., priority 1987, dated 1989)
Converted amounts (≈) assume the structure as drawn.

Assays:
E. coli NIHJ JC-2 = assay: In vitro antibacterial activity, twofold agar-dilution MIC; assay type: cell-based; details: Escherichia coli, NIHJJC2; E. coli NIHJ JC-2; Mueller-Hinton agar, 20-hour incubation at 37 °C; calculated for free base; read-out: minimum inhibitory concentrations (MIC)
Description: (§1) The figures in the table show minimum inhibitory concentrations (MIC) (µg/ml), calculated for free base. […] One loopful of an overnight culture of test organisms in Mueller-Hinton broth was inoculated onto 10 ml drug- containing agar layers in petri dishes. Bacterial inocula contained approximately 10⁶ colonyl-forming units. […] The MIC was defined as the lowest drug concentration which prevented visible bacterial growth.

E. coli P-5101 = assay: as above; assay type: cell-based; details: Escherichia coli, P5101; E. coli P-5101; Mueller-Hinton agar, 20-hour incubation at 37 °C; calculated for free base; read-out: minimum inhibitory concentrations (MIC)
Description: as §1

P. aeruginosa 12 = assay: as above; assay type: cell-based; details: Pseudomonas aeruginosa; P. aeruginosa 12; Mueller-Hinton agar, 20-hour incubation at 37 °C; calculated for free base; read-out: minimum inhibitory concentrations (MIC)
Description: as §1

S. aureus 209 JC-1 = assay: as above; assay type: cell-based; details: Staphylococcus aureus, 209JC1; S. aureus 209 JC-1; Mueller-Hinton agar, 20-hour incubation at 37 °C; calculated for free base; read-out: minimum inhibitory concentrations (MIC)
Description: as §1

S. aureus No. 80 = assay: as above; assay type: cell-based; details: Staphylococcus aureus; S. aureus No. 80; Mueller-Hinton agar, 20-hour incubation at 37 °C; calculated for free base; read-out: minimum inhibitory concentrations (MIC)
Description: as §1

S. aureus Terajima = assay: as above; assay type: cell-based; details: Staphylococcus aureus; S. aureus Terajima; Mueller-Hinton agar, 20-hour incubation at 37 °C; calculated for free base; read-out: minimum inhibitory concentrations (MIC)
Description: as §1

S. epidermidis No. 8 = assay: as above; assay type: cell-based; details: Staphylococcus epidermidis; S. epidermidis No. 8; Mueller-Hinton agar, 20-hour incubation at 37 °C; calculated for free base; read-out: minimum inhibitory concentrations (MIC)
Description: as §1

S. marcescens S-9 = assay: as above; assay type: cell-based; details: Serratia marcescens, S9; S. marcescens S-9; Mueller-Hinton agar, 20-hour incubation at 37 °C; calculated for free base; read-out: minimum inhibitory concentrations (MIC)
Description: as §1

S. pyogenes A65 = assay: as above; assay type: cell-based; details: Streptococcus pyogenes; S. pyogenes A65; Mueller-Hinton agar, 20-hour incubation at 37 °C; calculated for free base; read-out: minimum inhibitory concentrations (MIC)
Description: as §1

[1] = system: C. Trachomatics G/ur 1242; assay: Antichlamydia activity, MIC in McCoy cells (inclusion bodies); assay type: cell-based; details: C. Trachomatics G/ur 1242; McCoy cells, 36 °C for 40-48 hours; calculated for free base; read-out: minimum inhibitory concentrations (MIC)
Description: (§2) The figures in the table show minimum inhibitory concentrations (MIC), (μg/ml), calculated for free base. Minimum inhibitory concentrations (MIC) were determined as follows. […] The cells were trypsinized and suspended in the same culture medium at a cell concentration of 1-2 x 10^5 cells/ml. One ml of the cell suspension was pipetted into flat-bottomed plastic tubes (14 mm in diameter) containing a cover slip (12 mm in diameter). The tubes were incubated in 5 % CO2-air at 36 °C for 20 hours. One-half ml of a chlamydial suspension (ca. 1-4 x 103 inclusion body forming units) was added into each tube, which was then centrifuged at 1500 x g for 60 minutes. The tubes were incubated for 1 hour at 36 °C. […] After further incubation at 36 °C for 40-48 hours, the cells on the cover glasses were stained with the Giemsa's solution. […] The MIC was defined as the lowest drug concentration where there were no inclusion bodies in all the cells on the cover slip.

[2] = system: C. Trachomatics G/ur 1317; assay: as above; assay type: cell-based; details: C. Trachomatics G/ur 1317; McCoy cells, 36 °C for 40-48 hours; calculated for free base; read-out: minimum inhibitory concentrations (MIC)
Description: as §2

[3] = system: C. Trachomatics G/ur 1448; assay: as above; assay type: cell-based; details: C. Trachomatics G/ur 1448; McCoy cells, 36 °C for 40-48 hours; calculated for free base; read-out: minimum inhibitory concentrations (MIC)
Description: as §2

C. Trachomatics G/ur 931 = assay: as above; assay type: cell-based; details: C. Trachomatics G/ur 931; McCoy cells, 36 °C for 40-48 hours; calculated for free base; read-out: minimum inhibitory concentrations (MIC)
Description: as §2

in vivo = details: mouse, po; for LD50 at 7 days: male, ddY
Description: A suspension containing each of compounds of this invention in various concentrations was orally given to male mice (ddY) at a dose of 0.1 ml per 10 g of body weight. The number of dead mice was counted after 7 days, and the value of median lethal dose (LD₅₀, mg/kg) was calculated in accordance with the Behrens-Kaerber method.

Row | Structure (SMILES) | MIC (E. coli NIHJ JC-2) | MIC (E. coli P-5101) | MIC (P. aeruginosa 12) | MIC (S. aureus 209 JC-1) | MIC (S. aureus No. 80) | MIC (S. aureus Terajima) | MIC (S. epidermidis No. 8) | MIC (S. marcescens S-9) | MIC (S. pyogenes A65) | MIC [1] | MIC [2] | MIC [3] | MIC (C. Trachomatics G/ur 931) | LD50 at 168 h (in vivo; orally given to male mice (ddY), dead mice counted after 7 days, Behrens-Kaerber method, read-out: LD₅₀) | LD50 at 7 days (in vivo)
1 | Cc1c(F)c(N2CCNCC2)c(F)c2c1c(=O)c(C(=O)O)cn2C1CC1 [Compound 2, 1-cyclopropyl-6,8--difluoro-5-methyl-7-(1-piperazinyl)-1,4-dihydro-4-oxoquinoline-3-carboxylic acid] | 0.0063 µg/mL (≈ 0.0173 µM) | 0.0063 µg/mL (≈ 0.0173 µM) | 0.2 µg/mL (≈ 0.55 µM) | 0.025 µg/mL (≈ 0.0688 µM) | 0.0125 µg/mL (≈ 0.0344 µM) | 0.025 µg/mL (≈ 0.0688 µM) | 0.025 µg/mL (≈ 0.0688 µM) | 0.1 µg/mL (≈ 0.275 µM) | 0.39 µg/mL (≈ 1.07 µM) | 0.1 µg/mL (≈ 0.275 µM) | 0.1 µg/mL (≈ 0.275 µM) | 0.1 µg/mL (≈ 0.275 µM) | 0.05 µg/mL (≈ 0.138 µM) | > 2000 mg/kg | –
2 | Cc1c(F)c(N2CCC(N)C2)c(F)c2c1c(=O)c(C(=O)O)cn2C1CC1 (centres unmarked) [Compound 3, 7-(3-amino-1-pyrrolidinyl)-1-cyclopropyl-6,8-difluoro-5-methyl-1,4-dihydro-4-oxoquinoline-3-carboxylic acid] | 0.0125 µg/mL (≈ 0.0344 µM) | 0.0125 µg/mL (≈ 0.0344 µM) | 0.2 µg/mL (≈ 0.55 µM) | 0.0125 µg/mL (≈ 0.0344 µM) | 0.0125 µg/mL (≈ 0.0344 µM) | 0.0125 µg/mL (≈ 0.0344 µM) | 0.0125 µg/mL (≈ 0.0344 µM) | 0.05 µg/mL (≈ 0.138 µM) | 0.2 µg/mL (≈ 0.55 µM) | 0.013 µg/mL (≈ 0.0358 µM) | 0.013 µg/mL (≈ 0.0358 µM) | 0.013 µg/mL (≈ 0.0358 µM) | 0.013 µg/mL (≈ 0.0358 µM) | – | > 2000 mg/kg
3 | Cc1c(F)c(N2C[C@@H](C)N[C@@H](C)C2)cc2c1c(=O)c(C(=O)O)cn2C1CC1 [Compound 4, 1-cyclopropyl-6-fluoro-5-methyl-7-(cis-3,5-dimethyl-1-piperazinyl)-1,4-dihydro-4-oxoquinoline-3-carboxylic acid] | 0.0125 µg/mL (≈ 0.0335 µM) | 0.025 µg/mL (≈ 0.0669 µM) | 0.2 µg/mL (≈ 0.536 µM) | 0.025 µg/mL (≈ 0.0669 µM) | 0.05 µg/mL (≈ 0.134 µM) | 0.025 µg/mL (≈ 0.0669 µM) | 0.05 µg/mL (≈ 0.134 µM) | 0.39 µg/mL (≈ 1.04 µM) | 0.1 µg/mL (≈ 0.268 µM) | – | – | – | – | – | > 2000 mg/kg
